Patent publication US10538535B2, “Antitumoral compounds” (priority 2017, dated 2020)
Like-named read-outs stand apart in the source and are kept apart here.

Assays:
H526 tumors = assay: In vivo xenograft, human lung (SCLC) H526
Procedure: Female athymic nu/nu mice (Harlan Laboratories Models, S. L. Barcelona, Spain or Envigo, Spain) were utilized for all experiments. Animal were housed in individually ventilated cages Sealsafe® Plus, Techniplast S.P.A.), up to ten per cage on a 12-hour light-dark cycle at 21-23° C. and 40-60% humidity. Mice were allowed free access to irradiated standard rodent diet (Tecklad 2914C) and sterilized water. Animals were acclimated for at least 5 days prior to tumor implantation with a tumor cell suspension.
H526 cells were grown as a suspension and maintained by addition of fresh medium, as the cell density increases, every 2 to 3 days. Every week, culture was reestablished by centrifugation of the suspension with subsequent resuspension in fresh medium at a concentration of 1×10^5 cell/mL. Each animal was subcutaneously implanted (on the right flank using 26 G needle and a 1 cc syringe) at 4-6 weeks of age with 5×10^6 H526 cells suspended in 0.05 mL of a solution consisting of 50% Matrigel® (Corning Incorporated Life Sciences) and 50% medium without serum or antibiotics.
(§1) Treatment tolerability was assessed by monitoring body weight evolution, clinical signs of systemic toxicity, as well as evidences of local damage in the injection site.
(§2) Treatments producing >20% lethality and/or 20% net body weight loss were considered toxic.

Procedure for A2780 tumors: (§3) Female athymic nu/nu mice (Harlan Laboratories Models, S. L. Barcelona, Spain or Envigo, Spain) were utilized for all experiments. Animal were housed in individually ventilated cages Sealsafe® Plus, Techniplast S.P.A.), up to ten per cage on a 12-hour light-dark cycle at 21-23° C. and 40-60% humidity. […] Animals were acclimated for at least 5 days prior to tumor implantation with a tumor cell suspension.
Culture cells were passaged every 3 to 5 days upon reaching confluence. Each animal was subcutaneously implanted (on the right flank using 26 G needle and a 1 cc syringe) at 4-6 weeks of age with 10×10^6 A2780 cells suspended in 0.05 mL of a solution consisting of 50% Matrigel® (Corning Incorporated Life Sciences) and 50% medium without serum or antibiotics.
as §1
In xenograft studies with other cell lines: • Tumor volume was calculated using the equation (a·b^2)/2, where a: length (longest diameter) and b: width (shortest diameter) were measured in mm by using digital caliper (Fowler Sylvac, S235PAT).
as §2
Procedure for H460 tumors: as §3
H460 cells were maintained in vitro at 37° C. with 5% CO2 in Dulbecco's Modified Eagle's Medium (Sigma-Aldrich, Co). Culture cells were passaged every 3 to 5 days upon reaching confluence. Each animal was subcutaneously implanted (on the right flank using 26 G needle and a 1 cc syringe) at 4-6 weeks of age with 5×10^6 H460 cells suspended in 0.05 mL of a solution consisting of 50% Matrigel® (Corning Incorporated Life Sciences) and 50% medium without serum or antibiotics.
as §1, §2

For `COc1c(C)cc2c(c1O)[C@@H]1[C@@H]3[C@@H]4SC[C@]5(N[C@@H](C)Cc6c5[nH]c5ccccc65)C(=O)OC[C@@H](c5c6c(c(C)c(OC(C)=O)c54)OCO6)N3[C@@H](O)[C@H](C2)N1C` [D], the “Median Tumor Volume” value (A2780 tumors; Table 26, Day 0, iv Days 0, 7, 14) was 190.1 mm^3, the “Median Tumor Volume” value (A2780 tumors; Table 26, Day 3, iv Days 0, 7, 14) was 319.6 mm^3 and the “Median Tumor Volume” value (A2780 tumors; Table 26, Day 5, iv Days 0, 7, 14) was 514.4 mm^3. For the same compound, the “Median Tumor Volume” value (A2780 tumors; Table 26, Day 7, iv Days 0, 7, 14) was 897.4 mm^3, the “Median Tumor Volume” value (A2780 tumors; Table 26, Day 10, iv Days 0, 7, 14) was 1239.8 mm^3 and the “Median Tumor Volume” value (A2780 tumors; Table 26, Day 12, iv Days 0, 7, 14) was 1656.2 mm^3. For the same compound, the “Median Tumor Volume” value (A2780 tumors; Table 26, Day 14, iv Days 0, 7, 14) was 1951.7 mm^3, the “Median Tumor Volume” value (A2780 tumors; Table 26, Day 17, iv Days 0, 7, 14) was 2121.7 mm^3 and the “Median Tumor Volume” value (A2780 tumors; Table 26, Day 19, iv Days 0, 7, 14) was 2068.6 mm^3. The “Median Tumor Volume” value (A2780 tumors; iv, 0.5 mg/kg, 0 h) was 168.8 mm^3, the “Median Tumor Volume” value (A2780 tumors; iv, 0.5 mg/kg, 48 h) was 225.7 mm^3 and the “Median Tumor Volume” value (A2780 tumors; iv, 0.5 mg/kg, 120 h) was 256.6 mm^3. For the same compound, the “Median Tumor Volume” value (A2780 tumors; iv, 0.5 mg/kg, 168 h) was 473.8 mm^3, the “Median Tumor Volume” value (A2780 tumors; iv, 0.5 mg/kg, 336 h) was 1129.3 mm^3 and the “Median Tumor Volume” value (A2780 tumors; iv, 0.5 mg/kg, 384 h) was 1198.6 mm^3. The “Median Tumor Volume” value (A2780 tumors; iv, 0.5 mg/kg, 456 h) was 1649.6 mm^3, the “Median Tumor Volume” value (A2780 tumors; iv, 0.5 mg/kg, 504 h) was 2025.0 mm^3 and the “Median Tumor Volume” value (H460 tumors; Table 24, Day 0, iv Days 0, 7, 14) was 203.4 mm^3. The “Median Tumor Volume” value (H460 tumors; Table 24, Day 2, iv Days 0, 7, 14) was 367.3 mm^3, the “Median Tumor Volume” value (H460 tumors; Table 24, Day 7, iv Days 0, 7, 14) was 792.0 mm^3 and the “Median Tumor Volume” value (H460 tumors; Table 24, Day 9, iv Days 0, 7, 14) was 854.6 mm^3. For the same compound, the “Median Tumor Volume” value (H460 tumors; Table 24, Day 12, iv Days 0, 7, 14) was 1026.7 mm^3, the “Median Tumor Volume” value (H460 tumors; Table 24, Day 14, iv Days 0, 7, 14) was 1175.8 mm^3 and the “Median Tumor Volume” value (H460 tumors; Table 24, Day 16, iv Days 0, 7, 14) was 1322.1 mm^3. For the same compound, the “Median Tumor Volume” value (H460 tumors; Table 24, Day 19, iv Days 0, 7, 14) was 1581.1 mm^3, the “Median Tumor Volume” value (H460 tumors; Table 24, Day 21, iv Days 0, 7, 14) was 1789.3 mm^3 and the “Median Tumor Volume” value (H460 tumors; Table 24, Day 23, iv Days 0, 7, 14) was 1966.5 mm^3. For the same compound, the “Median Tumor Volume” value (H460 tumors; Table 24, Day 26, iv Days 0, 7, 14) was 2080.7 mm^3, the “Median Tumor Volume” value (H460 tumors; iv, 0.5 mg/kg, 0 h) was 187.2 mm^3 and the “Median Tumor Volume” value (H460 tumors; iv, 0.5 mg/kg, 48 h) was 329.7 mm^3. For the same compound, the “Median Tumor Volume” value (H460 tumors; iv, 0.5 mg/kg, 120 h) was 559.4 mm^3, the “Median Tumor Volume” value (H460 tumors; iv, 0.5 mg/kg, 168 h) was 756.5 mm^3 and the “Median Tumor Volume” value (H460 tumors; iv, 0.5 mg/kg, 336 h) was 1626.8 mm^3. The “Median Tumor Volume” value (H460 tumors; iv, 0.5 mg/kg, 384 h) was 2025.0 mm^3, the “Median Tumor Volume” value (H526 tumors; Table 32, Day 0.0, iv Days 0, 7, 14, 12-R 0.05 mg/kg, Compound D 0.5 mg/kg) was 216.1 mm^3 and the “Median Tumor Volume” value (H526 tumors; Table 32, Day 2.0, iv Days 0, 7, 14, 12-R 0.05 mg/kg, Compound D 0.5 mg/kg) was 240.9 mm^3. The “Median Tumor Volume” value (H526 tumors; Table 32, Day 4.0, iv Days 0, 7, 14, 12-R 0.05 mg/kg, Compound D 0.5 mg/kg) was 99.3 mm^3, the “Median Tumor Volume” value (H526 tumors; Table 32, Day 7.0, iv Days 0, 7, 14, 12-R 0.05 mg/kg, Compound D 0.5 mg/kg) was 56.7 mm^3 and the “Median Tumor Volume” value (H526 tumors; Table 32, Day 9.0, iv Days 0, 7, 14, 12-R 0.05 mg/kg, Compound D 0.5 mg/kg) was 62.5 mm^3. For the same compound, the “Median Tumor Volume” value (H526 tumors; Table 32, Day 11.0, iv Days 0, 7, 14, 12-R 0.05 mg/kg, Compound D 0.5 mg/kg) was 62.5 mm^3, the “Median Tumor Volume” value (H526 tumors; Table 32, Day 14.0, iv Days 0, 7, 14, 12-R 0.05 mg/kg, Compound D 0.5 mg/kg) was 32.0 mm^3 and the “Median Tumor Volume” value (H526 tumors; Table 32, Day 16.0, iv Days 0, 7, 14, 12-R 0.05 mg/kg, Compound D 0.5 mg/kg) was 4.0 mm^3. For the same compound, the “Median Tumor Volume” value (H526 tumors; Table 32, Day 21.0, iv Days 0, 7, 14, 12-R 0.05 mg/kg, Compound D 0.5 mg/kg) was 4.0 mm^3, the “Median Tumor Volume” value (H526 tumors; Table 32, Day 28.0, iv Days 0, 7, 14, 12-R 0.05 mg/kg, Compound D 0.5 mg/kg) was 4.0 mm^3 and the “Median Tumor Volume” value (H526 tumors; Table 32, Day 35.0, iv Days 0, 7, 14, 12-R 0.05 mg/kg, Compound D 0.5 mg/kg) was 4.0 mm^3. For the same compound, the “Median Tumor Volume” value (H526 tumors; Table 32, Day 42.0, iv Days 0, 7, 14, 12-R 0.05 mg/kg, Compound D 0.5 mg/kg) was 4.0 mm^3, the “Median Tumor Volume” value (H526 tumors; Table 32, Day 49.0, iv Days 0, 7, 14, 12-R 0.05 mg/kg, Compound D 0.5 mg/kg) was 4.0 mm^3 and the “Median Tumor Volume” value (H526 tumors; Table 56, Day 0, iv weekly, 47-R 0.1 mg/Kg, Compound D 0.5 mg/Kg) was 216.1 mm^3. The “Median Tumor Volume” value (H526 tumors; Table 56, Day 2, iv weekly, 47-R 0.1 mg/Kg, Compound D 0.5 mg/Kg) was 240.9 mm^3, the “Median Tumor Volume” value (H526 tumors; Table 56, Day 4, iv weekly, 47-R 0.1 mg/Kg, Compound D 0.5 mg/Kg) was 99.3 mm^3 and the “Median Tumor Volume” value (H526 tumors; Table 56, Day 7, iv weekly, 47-R 0.1 mg/Kg, Compound D 0.5 mg/Kg) was 56.7 mm^3. For the same compound, the “Median Tumor Volume” value (H526 tumors; Table 56, Day 9, iv weekly, 47-R 0.1 mg/Kg, Compound D 0.5 mg/Kg) was 62.5 mm^3, the “Median Tumor Volume” value (H526 tumors; Table 56, Day 11, iv weekly, 47-R 0.1 mg/Kg, Compound D 0.5 mg/Kg) was 62.5 mm^3 and the “Median Tumor Volume” value (H526 tumors; Table 56, Day 14, iv weekly, 47-R 0.1 mg/Kg, Compound D 0.5 mg/Kg) was 32.0 mm^3. The “Median Tumor Volume” value (H526 tumors; Table 56, Day 16, iv weekly, 47-R 0.1 mg/Kg, Compound D 0.5 mg/Kg) was 4.0 mm^3 and the “Median Tumor Volume” value (H526 tumors; Table 56, Day 21, iv weekly, 47-R 0.1 mg/Kg, Compound D 0.5 mg/Kg) was 4.0 mm^3.
